The subject of experiment [1] is cellular oxygen consumption. The experiment can be described thus: Cellular oxygen consumption. Format: cell-based. To be noted: XF24 Extracellular Flux Analyzer. An excerpt:
Cells treated with oligomycin or rotenone/antimycin A, as expected, compensated for the loss of oxidative phosphorylation by increasing glycolysis, reducing the bound NADH fraction (FIG. 51F). Conversely, the glycolysis inhibitor 2-DG and starvation increased oxidative phosphorylation and the bound to free NADH ratio. SH-BC-893 mimicked the effect of amino acid and glucose starvation, increasing the bound NADH fraction and cellular oxygen consumption (FIGS. 51F and 51G). Cells responded similarly to the anti-inflammatory drug FTY720. Thus, the metabolic changes triggered by SH-BC-893 parallel those seen in cells with restricted access to key metabolic substrates.
Cell analysis: Viability and 4F2hc expression are determined by vital dye exclusion and flow cytometry. Oxygen consumption is measured with an XF24 Extracellular Flux Analyzer (Seahorse Bioscience); values are normalized to total protein. Confocal microscopy is performed on either a Zeiss LSM780 or a Nikon Eclipse Ti; vacuolation was monitored using a Nikon TE2000-S equipped with DIC filters. Anchorage-independent growth of SW620 cells is measured in DMEM-10 containing 0.35% agarose with a 0.5% agarose bottom layer. […] Plates were incubated at 37° C. in a humidified atmosphere containing 5% CO2 and colonies were counted after 12 days.

In experiment [2] the test system is K-RasG12D expressing cells. The experiment can be described thus: Macropinosome fusion with lysosomes. Format: cell-based. To be noted: dextran. The source says: In cells with activated Ras, macropinocytosis might also confer resistance to nutrient transporter down-regulation. However, PI(3,5)P2 is also required for macropinosome degradation. […] Macropinosomes that fail to fuse with lysosomes would not be able to supply nutrients, such as amino acids. Thus, by disrupting PIKfyve localization, sphingolipid-like compounds limit access to lysosome-derived nutrients at the same time it down-regulates transporters for amino acids and glucose.
(§1) Light Microscopy: Brightfield and epifluorescence microscopy were conducted using a Nikon TE2000-S fluorescence microscope; confocal microscopy was performed on a Zeiss LSM780 confocal microscope or Nikon Eclipse Ti spinning disk confocal microscope. […] Co-localization was determined using JACoP plugin in ImageJ software. Macropinocytosis was measured after 16 h incubation in serum-free DMEM. p53−/−; LSL-K-RasG12D MEFs before (LSL) or after (KRasG12D) introduction of Cre were serum starved for 16 h and then treated with macropinocytosis inhibitor 5-(N-ethyl-N-isopropyl) amiloride (EIPA, 75 μM) for 1 h or SH-BC-893 for 6 h. Oregon Green dextran (Life Technologies, cat #D7173) (1 mg/mL) and Lysotracker Red (Life Technologies, cat #L-7525) (1:2,000 dilution) were added for 30 min and live cells were evaluated on the spinning disc confocal microscope. […]

The next experiment has as its system 4F2hc, ASCT2, GLUT1. Nature of the experiment: Nutrient transporter internalization. It is filed as cell-based. To be noted: CD147 not affected.
Text: As a proof of principle concerning the ability of C-aryl azacyclic constrained sphingolipid-like compounds, compound SH-BC-893 was examined thoroughly in a series of exemplary embodiment experiments. (The chemical structure of SH-BC-893, also referred to in the in this application as compound 5 and compound 104, and of FTY720 are shown in FIG. 51A). Results are provided below, along with a number of correlated data tables and graphs (Tables 7 and 8 and FIGS. 51-67). In embodiments, SH-BC-893 induces nutrient transporter loss and mimics starvation without the S1P receptor associated toxicity of FTY720. SH-BC-893 lacks the sphingosine-1-phosphate (S1P) receptor activity that prevents the use of FTY720 in cancer patients (FIG. 51B). […]
as §1, with “h.” for “h. Oregon Green dextran (Life Technologies, cat #D7173) (1 mg/mL) and Lysotracker Red (Life Technologies, cat #L-7525) (1:2,000 dilution) were added for 30 min and live cells were evaluated on the spinning disc confocal microscope.”

The target in the next experiment is T1, PIKfyve (Homo sapiens, UniProt Q9Y2I7).
T1 construct: made in house; host or cells: HEK293T cells
The experiment can be described thus: PIKfyve in vitro kinase assay. It is filed as biochemical. To be noted: FLAG-PIKfyve. The source says: In certain embodiments of the invention, sphingolipid-like molecules mis-localize PIKfyve preventing its association with TRMPL1 and inducing vacuolation, instead of inhibiting PIKfyve kinase activity. While PIKfyve localized to the limiting membrane of YM201636-induced vacuoles as expected, PIKfyve was present in clumps between vacuoles in FTY720-treated cells (FIGS. 57C and 56F).
PIKfyve in vitro kinase assay. FLAG-PIKfyve was expressed in HEK293T cells, purified with FLAG-beads, and eluted with FLAG peptides. PI3P and phosphatidylserine (C16) liposomes were generated by sonication in 2× lipid mixture buffer [40 mM Tris-HCl (pH 7.4), 200 mM NaCl, 1 mM EGTA] with or without FTY720. FLAG-PIKfyve and lipid mixtures were incubated with Mg^2+-ATP solution [6.5 mM HEPES (pH 7.3), 2.5 mM MnCl2, 10 mM MgCl2, 1 mM β-glycerophosphate, 0.1 mM ATP and [^32P]-γ-ATP] for 15 min at RT. The reaction was stopped by adding 4 M HCl, and phosphoinositides were extracted with methanol/chloroform (1:1). Phosphoinositides were spotted on silica thin-layer chromatography plates and separated with 2 M acetic acid/1-propanol (35:65). Membranes were dried, exposed to a Phospho Imager, and the counts from PI(3,5)P2 spots quantified with ImageQuant.

T1 sequence (Q9Y2I7 whole entry, species assumed): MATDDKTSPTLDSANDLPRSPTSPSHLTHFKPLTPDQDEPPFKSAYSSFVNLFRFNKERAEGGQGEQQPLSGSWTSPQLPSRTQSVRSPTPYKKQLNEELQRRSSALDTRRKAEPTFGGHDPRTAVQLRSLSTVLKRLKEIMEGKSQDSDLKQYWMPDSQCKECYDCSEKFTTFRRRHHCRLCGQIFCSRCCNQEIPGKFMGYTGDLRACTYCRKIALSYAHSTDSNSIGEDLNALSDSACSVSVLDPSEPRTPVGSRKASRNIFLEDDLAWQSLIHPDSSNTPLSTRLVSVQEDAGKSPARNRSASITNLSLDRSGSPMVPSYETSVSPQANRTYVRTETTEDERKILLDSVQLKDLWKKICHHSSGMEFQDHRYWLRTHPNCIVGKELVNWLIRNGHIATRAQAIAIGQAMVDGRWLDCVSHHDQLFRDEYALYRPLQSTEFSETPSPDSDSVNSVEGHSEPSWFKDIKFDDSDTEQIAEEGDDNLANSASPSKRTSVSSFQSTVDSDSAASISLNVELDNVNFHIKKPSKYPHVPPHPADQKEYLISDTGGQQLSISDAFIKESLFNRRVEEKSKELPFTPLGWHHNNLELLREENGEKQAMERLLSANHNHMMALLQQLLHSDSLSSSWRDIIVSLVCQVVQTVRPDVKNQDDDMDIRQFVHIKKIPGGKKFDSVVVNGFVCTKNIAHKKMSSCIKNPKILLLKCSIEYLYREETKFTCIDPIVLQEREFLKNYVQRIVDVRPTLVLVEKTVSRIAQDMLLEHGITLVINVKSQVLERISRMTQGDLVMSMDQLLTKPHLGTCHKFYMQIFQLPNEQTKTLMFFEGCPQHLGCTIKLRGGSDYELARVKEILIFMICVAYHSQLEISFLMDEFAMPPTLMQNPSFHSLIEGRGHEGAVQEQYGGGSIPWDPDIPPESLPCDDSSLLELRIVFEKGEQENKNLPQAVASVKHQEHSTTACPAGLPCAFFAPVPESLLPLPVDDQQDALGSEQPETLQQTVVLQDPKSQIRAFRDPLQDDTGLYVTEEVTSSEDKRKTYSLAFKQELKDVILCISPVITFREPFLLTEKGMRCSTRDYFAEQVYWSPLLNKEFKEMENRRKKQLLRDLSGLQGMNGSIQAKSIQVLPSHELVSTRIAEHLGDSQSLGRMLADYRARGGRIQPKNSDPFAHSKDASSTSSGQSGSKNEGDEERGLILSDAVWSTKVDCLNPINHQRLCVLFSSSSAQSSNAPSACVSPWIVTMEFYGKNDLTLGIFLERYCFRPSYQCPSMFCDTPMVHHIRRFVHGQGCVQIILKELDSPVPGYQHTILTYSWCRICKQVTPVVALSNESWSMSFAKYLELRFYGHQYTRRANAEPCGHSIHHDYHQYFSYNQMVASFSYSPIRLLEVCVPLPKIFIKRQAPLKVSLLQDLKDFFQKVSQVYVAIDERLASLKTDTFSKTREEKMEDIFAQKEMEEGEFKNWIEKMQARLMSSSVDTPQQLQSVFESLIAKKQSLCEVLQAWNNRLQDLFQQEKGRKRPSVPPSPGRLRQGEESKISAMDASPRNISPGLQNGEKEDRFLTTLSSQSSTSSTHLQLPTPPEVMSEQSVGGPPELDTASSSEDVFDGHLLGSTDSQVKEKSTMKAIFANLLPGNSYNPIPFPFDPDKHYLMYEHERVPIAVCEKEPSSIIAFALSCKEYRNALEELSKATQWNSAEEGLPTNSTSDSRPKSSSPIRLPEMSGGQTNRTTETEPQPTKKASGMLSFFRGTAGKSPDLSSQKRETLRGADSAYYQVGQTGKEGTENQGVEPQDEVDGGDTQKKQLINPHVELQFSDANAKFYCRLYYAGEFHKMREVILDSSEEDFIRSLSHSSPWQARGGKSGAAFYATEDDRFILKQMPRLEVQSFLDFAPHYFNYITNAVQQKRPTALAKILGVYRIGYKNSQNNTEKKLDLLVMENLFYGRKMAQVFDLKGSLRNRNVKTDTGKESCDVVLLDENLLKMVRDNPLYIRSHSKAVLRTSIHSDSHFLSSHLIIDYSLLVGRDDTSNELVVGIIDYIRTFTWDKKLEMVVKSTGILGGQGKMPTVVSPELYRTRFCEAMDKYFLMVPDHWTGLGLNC

Regarding `CCCCCCCCc1ccc([C@H]2CCN[C@@H]2CO)cc1.Cl` [Compound 5, (2S,3R)-2-(hydroxymethyl)-3-(4-octylphenyl)Pyrrolidinium chloride], in experiment [1], the cellular oxygen consumption entry is recorded as “increasing”. Also, in experiment [2], the “macropinosome fusion with lysosomes” value is given as “dramatically reduced macropinosome fusion with lysosomes”. The “internalization of amino acid and glucose transporters (4F2hc, ASCT2, GLUT1)” value in the experiment with 4F2hc, ASCT2, GLUT1 is given as “triggers the selective internalization”.
On to `CCCCCCCCc1ccc(CCC(N)(CO)CO)cc1.Cl` [FTY720, 2-Amino-2-[2-(4-octylphenyl)ethyl]propane 1,3-diol hydrochloride, reference compound], for which, on PIKfyve, the PIKfyve kinase activity result is given as “did not inhibit PIKfyve kinase activity”.

For the origin of these results see patent US10995068B2, “Synthetic sphingolipid-like molecules, drugs, methods of their synthesis and methods of treatment” (The Regents of the University of California, priority 2015, dated 2021).
